Measurements published in patent US6403626B1, “Benzimidazole derivatives” (Synaptic Pharmaceutical Corporation, priority 1994, dated 2002).
Where a name gives a salt, the structure may show the parent alone.

| Compound | melting point [°C] |
| --- | --- |
| Cn1cnc2cc(NC3=NCCN3)ccc21 (as salt: fumarate) [Example 9, 1-Methyl-5-(2-imidazolin-2-ylamino)Benzimidazole] | 210 to 211 |
| Cn1cnc2ccc(NC3=NCCN3)cc21 (as salt: fumarate) [Example 11, 3-Methyl-5-(2-imidazolin-2-ylamino)Benzimidazole] | 202 to 204 |
| CCCn1cnc2cc(NC3=NCCN3)ccc21 (as salt: fumarate) [Example 13, 1-Propyl-5-(2-imidazolin-2-ylamino)Benzimidazole] | 206 to 207 |
| CCCn1cnc2ccc(NC3=NCCN3)cc21 (as salt: fumarate) [Example 15, 3-Propyl-5-(2-imidazolin-2-ylamino)Benzimidazole] | 198 to 199 |
| CC(C)n1cnc2cc(NC3=NCCN3)ccc21 (as salt: fumarate) [Example 17, 1-Isopropyl-5-(2-imidazolin-2-ylamino)Benzimidazole] | 185 to 186 |
| CC(C)n1cnc2c(Br)c(NC3=NCCN3)ccc21 (as salt: fumarate) [Example 18, 1-Isopropyl-4-bromo-5-(2-imidazolin-2-ylamino)Benzimidazole] | 187 to 188 |
| CC(C)n1cnc2c(I)c(NC3=NCCN3)ccc21 (as salt: fumarate) [Example 19, 1-lsopropyl-4-Iodo-5-(2-imidazolin-2-ylamino)Benzimidazole] | 208 to 209 |
| CC(C)n1cnc2ccc(NC3=NCCN3)c(Br)c21 (as salt: fumarate) [Example 21, 3-Isopropyl-4-bromo-5-(2-imidazolin-2-ylamino)Benzimidazole] | 210 to 212 |
| CC(C)Cn1cnc2cc(NC3=NCCN3)ccc21 (as salt: fumarate) [Example 22, 1-Isobutyl-5-(2-imidazolin-2-ylamino)Benzimidazole] | 185 to 186 |
| CC(C)Cn1cnc2ccc(NC3=NCCN3)c(Br)c21 (as salt: fumarate) [Example 24, 3-Isobutyl-4-bromo-5-(2-imidazolin-2-ylamino)Benzimidazole] | 187 to 188 |
| c1cc2c(cc1NC1=NCCN1)ncn2C1CCCC1 (as salt: fumarate) [Example 25, 1-Cyclopentyl-5-(2-imidazolin-2-ylamino)Benzimidazole] | 214 to 215 |
| Brc1c(NC2=NCCN2)ccc2c1ncn2C1CCCC1 (as salt: fumarate) [Example 26, 1-Cyclopentyl-4-bromo-5-(2-imidazolin-2-ylamino)Benzimidazole] | 180 to 182 |
| c1cc2ncn(C3CCCC3)c2cc1NC1=NCCN1 (as salt: fumarate) [Example 27, 3-Cyclopentyl-5-(2-imidazolin-2-ylamino)Benzimidazole] | 158 to 159 |
| Brc1c(NC2=NCCN2)ccc2ncn(C3CCCC3)c12 (as salt: fumarate) [Example 28, 3-Cyclopentyl-4-bromo-5-(2-imidazolin-2-ylamino)Benzimidazole] | 208 to 210 |
| c1cc2c(cc1NC1=NCCN1)ncn2CC1CCCCC1 (as salt: fumarate) [Example 29, 1-Cyclohexylmethyl-5-(2-imidazolin-2-ylamino)Benzimidazole] | 222 to 223 |
| Brc1c(NC2=NCCN2)ccc2c1ncn2CC1CCCCC1 (as salt: fumarate) [Example 30, 1-Cyclohexylmethyl-4-bromo-5-(2-imidazolin-2-ylamino)Benzimidazole] | 193 to 195 |
| Brc1c(NC2=NCCN2)ccc2ncn(CC3CCCCC3)c12 (as salt: fumarate) [Example 31, 3-Cyclohexylmethyl-4-bromo-5-(2-imidazolin-2-ylamino)Benzimidazole] | 153 to 155 |
| c1ccc(Cn2cnc3cc(NC4=NCCN4)ccc32)cc1 (as salt: fumarate) [Example 32, 1-Benzyl-5-(2-imidazolin-2-ylamino)Benzimidazole] | 174 to 175 |

| Compound | melting point [°C] |
| --- | --- |
| Brc1c(NC2=NCCN2)ccc2c1ncn2Cc1ccccc1 (as salt: fumarate) [Example 33, 1-Benzyl-4-bromo-5-(2-imidazolin-2-ylamino)Benzimidazole] | 197 to 198 |
| c1ccc(Cn2cnc3ccc(NC4=NCCN4)cc32)cc1 (as salt: fumarate) [Example 34, 3-Benzyl-5-(2-imidazolin-2-ylamino)Benzimidazole] | 174 to 175 |
| Brc1c(NC2=NCCN2)ccc2ncn(Cc3ccccc3)c12 (as salt: fumarate) [Example 35, 3-Benzyl-4-bromo-5-(2-imidazolin-2-ylamino)Benzimidazole] | 203 to 205 |
| COc1cccc(Cn2cnc3c(Br)c(NC4=NCCN4)ccc32)c1 (as salt: fumarate) [Example 37, 1-(3-Methoxybenzyl)-4-bromo-5-(2-imidazolin-2-ylamino)Benzimidazole] | 177 to 178 |
| OCCn1cnc2c(Br)c(NC3=NCCN3)ccc21 (as salt: fumarate) [Example 38, 1-(2-Hydroxyethyl)-4-bromo-5-(2-imidazolin-2-ylamino)Benzimidazole] | 141 to 143 |
| Cc1nc2ccc(NC3=NCCN3)c(Br)c2[nH]1 (as salt: fumarate) [Example 42, 2-Methyl-4-bromo-5-(2-imidazolin-2-ylamino)Benzimidazole] | 222 to 224 |
| CCc1nc2ccc(NC3=NCCN3)c(Br)c2[nH]1 (as salt: fumarate) [Example 43, 2-Ethyl-4-bromo-5-(2-imidazolin-2-ylamino)Benzimidazole] | 186 to 187 |
| CC(C)c1nc2ccc(NC3=NCCN3)c(Br)c2[nH]1 (as salt: fumarate) [Example 44, 2-Isopropyl-4-bromo-5-(2-imidazolin-2-ylamino)Benzimidazole] | 176 to 178 |
| CC(C)(C)c1nc2ccc(NC3=NCCN3)c(Br)c2[nH]1 (as salt: fumarate) [Example 45, 2-tert-Butyl-4-bromo-5-(2-imidazolin-2-ylamino)Benzimidazole] | 176 to 178 |
| Brc1c(NC2=NCCN2)ccc2nc(C(c3ccccc3)c3ccccc3)[nH]c12 (as salt: fumarate) [Example 48, 2-Diphenylmethyl-4-bromo-5-(2-imidazolin-2-ylamino)Benzimidazole] | 240 to 242 |
| Cc1cc2nc[nH]c2cc1NC1=NCCN1 (as salt: fumarate) [Example 49, 6-Methyl-5-(2-imidazolin-2-ylamino)Benzimidazole] | 219 to 221 |
| Brc1cc(NC2=NCCN2)cc2[nH]cnc12 (as salt: fumarate) [Example 51, 7-Bromo-5-(2-imidazolin-2-ylamino)Benzimidazole] | 217 to 218 |
| Cc1cc(NC2=NCCN2)cc2[nH]cnc12 (as salt: fumarate) [Example 52, 7-Methyl-5-(2-imidazolin-2-ylamino)Benzimidazole] | 229 to 231 |
| Clc1cc(NC2=NCCN2)cc2[nH]cnc12 (as salt: fumarate) [Example 53, 7-Chloro-5-(2-imidazolin-2-ylamino)Benzimidazole] | 220 to 221 |
| CCc1cc(NC2=NCCN2)cc2[nH]cnc12 (as salt: fumarate) [Example 55, 7-Ethyl-5-(2-imidazolin-2-ylamino)Benzimidazole] | 203 to 205 |
| CCCCc1cc(NC2=NCCN2)cc2[nH]cnc12 (as salt: fumarate) [Example 56, 7-Butyl-5-(2-imidazolin-2-ylamino)Benzimidazole] | 115 to 117 |
| c1ccc(-c2cc(NC3=NCCN3)cc3[nH]cnc23)cc1 (as salt: fumarate) [Example 57, 7-Phenyl-5-(2-imidazolin-2-ylamino)Benzimidazole] | 149 to 151 |
| Clc1cc(NC2=NCCN2)c(Br)c2[nH]cnc12 (as salt: fumarate) [Example 60, 4-Bromo-7-chloro-5-(2-imidazolin-2-ylamino)Benzimidazole] | 244 to 246 |
